This is an account of results in patent US20150353495A1 (PORTOLA PHARMACEUTICALS, INC., priority 2010, published 2015).

Some results are limits rather than exact numbers.

The test system of experiment [1] is JAK1/3 signaling to STAT6 in Ramos B cells. The experiment can be described thus: IL4 stimulation of JAK1/3 signaling to STAT6 in Ramos B cells (pSTAT6 Y641, FACS). As to conditions: Homo sapiens; for inhibition at 0.2 µM: 0.2 uM compound, read-out: IL-4/STAT6 in Ramos Percent Inhibition at 0.2 uM; for inhibition at 1 µM: 1.0 uM compound, read-out: IL-4/STAT6 in Ramos Percent Inhibition at 1.0 uM. Type of experiment: cell-based. In short, it runs like this: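 Phospho-STAT6 Y641 was measured by FACS using a PE-labelled antibody after fixation (2% paraformaldehyde) and methanol permeabilization. Before this, Ramos cells were exposed to compound for 1 h, then to 15 ng IL4 for 15 min.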

For experiment [2], the system named is JAK1/3 signaling to STAT5 in primary T cells. The experiment is described as follows: IL2 stimulation of JAK1/3 signaling to STAT5 in primary T cells (pSTAT5 Y694, FACS). The note with it: T-cell; for inhibition at 0.2 µM: 0.2 uM compound, read-out: IL-2/STAT5 Percent Inhibition at 0.2 uM; for inhibition at 1 µM: 1.0 μM compound, read-out: IL-2/STAT5 Percent Inhibition at 1.0 μM. It counts as cell-based. The protocol: IL2 Stimulation of JAK1/3 Signaling to STAT5 in Primary T Cells:
The effect of JAK inhibitors on cytokine signaling pathways utilizing JAK3 was determined using an IL2 stimulation assay. IL2 engages a receptor complex that contains the IL2 receptor alpha and beta subunits, and the common gamma chain, to initiate activation of JAK1 and JAK3 leading to phosphorylation of STAT5 at tyrosine position 694. Lymphocytes are isolated from heparinized whole blood over a ficoll gradient, then resuspended in tissue culture media containing 10% fetal calf serum at 10×10̂6 cells/ml. 100 μl aliquots are pre-treated for 1 hour with various concentrations of compound, and then stimulated for 12 minutes with 100 U/ml IL2. The signaling reaction is terminated by fixing in 2% paraformaldehyde for 10 minutes at room temperature. Fixed cells are then washed and permeablized by suspension in 50% methanol (in PBS) at −80° C. Following overnight incubation at 4° C., cells are washed and resuspended in PBS containing 0.5% bovine serum albumin containing CD3-APC and pSTAT5 Y694-PE conjugated antibodies. After 1 hour incubation, cells are washed and the extent of STAT5 phosphorlyation in T cells is measured by FACS analysis.

Experiment [3] deals with T1, JAK1 (Homo sapiens, UniProt P23458).
T1 construct: 5 μl of catalytic domain recombinant Kinase enzyme+Tyr peptide substrate (Invitrogen, CA); purchased Invitrogen
The experiment is described as follows: Z'-LYTE kinase assay JAK1. It counts as biochemical. In short, it runs like this:
(§1)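 Z′-LYTE FRET, Tyr6 peptide, recombinant catalytic domain + ATP, 1 h RT, 1% DMSO final, duplicates; protease development 1 h RT; fluorescence read.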

For experiment [4], the target named is T2, JAK2 (Homo sapiens, UniProt O60674).
T2 construct: 5 μl of catalytic domain recombinant Kinase enzyme+Tyr peptide substrate (Invitrogen, CA); purchased Invitrogen
The experiment is described as follows: Z'-LYTE kinase assay JAK2. Type of experiment: biochemical. An outline of the steps: as §1

Experiment [5] deals with T3, JAK3 (Homo sapiens, UniProt P52333).
T3 construct: 5 μl of catalytic domain recombinant Kinase enzyme+Tyr peptide substrate (Invitrogen, CA); purchased Invitrogen
The experiment is described as follows: Z'-LYTE kinase assay JAK3. It counts as biochemical. In short, it runs like this:
as §1

Experiment [6] has as its target T4, TYK2 (Homo sapiens, UniProt P29597).
T4 construct: 5 μl of catalytic domain recombinant Kinase enzyme+Tyr peptide substrate (Invitrogen, CA); purchased Invitrogen
T4 sequence (P29597 897-1176 limits assumed): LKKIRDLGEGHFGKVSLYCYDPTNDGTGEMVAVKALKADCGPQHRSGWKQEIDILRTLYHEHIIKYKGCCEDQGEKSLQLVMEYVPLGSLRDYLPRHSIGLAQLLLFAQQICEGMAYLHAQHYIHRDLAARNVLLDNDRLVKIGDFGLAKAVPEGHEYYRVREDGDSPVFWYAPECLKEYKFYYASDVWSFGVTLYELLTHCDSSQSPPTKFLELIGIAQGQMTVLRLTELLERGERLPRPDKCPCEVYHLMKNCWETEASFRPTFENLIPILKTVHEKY
The experiment is described as follows: Z'-LYTE kinase assay TYK2. Type of experiment: biochemical. An outline of the steps: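 IC50 derived by 4-parameter logistic fit of percent substrate phosphorylation relative to uninhibited wells. Tyr6 peptide phosphorylated by recombinant TYK2 catalytic domain for 1 h at room temperature (1% DMSO), cleaved by development protease 1 h, FRET emission ratio 445/520 nm.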

T1 sequence (P23458 875-1153 limits assumed): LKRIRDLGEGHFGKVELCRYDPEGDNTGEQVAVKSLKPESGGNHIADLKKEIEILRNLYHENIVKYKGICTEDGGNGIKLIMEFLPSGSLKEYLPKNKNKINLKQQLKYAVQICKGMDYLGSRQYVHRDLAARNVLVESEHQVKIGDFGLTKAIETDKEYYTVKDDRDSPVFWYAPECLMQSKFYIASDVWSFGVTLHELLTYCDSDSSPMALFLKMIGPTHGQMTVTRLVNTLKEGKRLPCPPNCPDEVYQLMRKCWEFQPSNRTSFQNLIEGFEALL
T2 sequence (O60674 849-1124 limits assumed): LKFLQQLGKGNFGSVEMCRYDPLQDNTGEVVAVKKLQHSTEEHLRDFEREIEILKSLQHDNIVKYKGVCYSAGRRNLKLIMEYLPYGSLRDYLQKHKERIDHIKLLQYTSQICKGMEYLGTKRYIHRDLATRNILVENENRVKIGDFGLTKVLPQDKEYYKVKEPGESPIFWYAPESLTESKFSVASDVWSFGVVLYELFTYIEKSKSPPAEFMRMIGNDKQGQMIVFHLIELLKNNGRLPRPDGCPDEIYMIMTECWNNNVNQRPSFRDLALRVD
T3 sequence (P52333 822-1111 limits assumed): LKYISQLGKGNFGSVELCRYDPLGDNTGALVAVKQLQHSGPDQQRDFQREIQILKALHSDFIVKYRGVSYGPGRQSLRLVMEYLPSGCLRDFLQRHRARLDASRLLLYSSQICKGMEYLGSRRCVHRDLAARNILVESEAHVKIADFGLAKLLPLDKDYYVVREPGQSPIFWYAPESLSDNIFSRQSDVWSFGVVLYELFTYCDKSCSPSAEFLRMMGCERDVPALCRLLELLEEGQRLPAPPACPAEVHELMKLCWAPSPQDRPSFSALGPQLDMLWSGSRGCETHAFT

One may read the IC50 as the point on the concentration scale where inhibition reaches its midpoint. A high value points to lower potency. With `NC(=O)c1cnc(Nc2ccc(N3CCOCC3)cc2)cc1NCc1cccc(F)c1` [Example 67, 4-(3-fluorobenzylamino)-6-(4-morpholinophenylamino)nicotinamide], the inhibition at 0.2 µM in experiment [1] was determined as 48%; in experiment [2] it was 61%. The inhibition at 1 µM in experiment [1] was determined as 69%; in experiment [2], 89%. For the same compound, the IC50 in experiment [3] fell in the range of 100 to 1000 nM; in experiment [4], 10 to 100 nM; in experiment [5], 1 to 10 nM; in experiment [6], 100 to 1000 nM.
In the case of `CCC(=O)N1CCC(c2ccc(Nc3cc(NCc4ccccc4F)c(C(N)=O)cn3)cc2)CC1` [Example 79], the inhibition at 0.2 µM turned out to be 20% in experiment [1] and 53% in experiment [2]. Besides, the inhibition at 1 µM in experiment [1] worked out at 43%; in experiment [2], 73%. Further, the half-inhibitory concentration (IC50) in experiment [3] is 100 to 1000 nM; in experiment [4], 100 to 1000 nM; in experiment [5], 10 to 100 nM; in experiment [6], 100 to 1000 nM.
On to `NC(=O)c1cnc(Nc2ccc(C(=O)N3CCC3)cc2)cc1NCc1c(F)cccc1F` [Example 105, 6-(4-(azetidine-1-carbonyl)phenylamino)-4-(2,6-difluorobenzylamino)nicotinamide], for which the results for the inhibition at 0.2 µM in experiment [1] and in experiment [2] were 53% and 72%, respectively. The figures for the inhibition at 1 µM in experiment [1] and in experiment [2] were 88% and 99%, respectively. The IC50 is 10 to 100 nM in experiment [3], 10 to 100 nM in experiment [4], 1 to 10 nM in experiment [5] and 10 to 100 nM in experiment [6].
As to `CN1CCC(c2ccc(Nc3cc(NCc4ccccc4F)c(C(N)=O)cn3)cc2)CC1` [Example 107, 4-(2-fluorobenzylamino)-6-(4-(1-methylpiperidin-4-yl)phenylamino)nicotinamide], the inhibition at 0.2 µM in experiment [1] came out at 43%; in experiment [2], 58%. For the same compound, the inhibition at 1 µM in experiment [1] was determined as 73%; in experiment [2] it was 82%. Moreover, the IC50 lay in the range of 100 to 1000 nM in experiment [3], 100 to 1000 nM in experiment [4], 1 to 10 nM in experiment [5] and 100 to 1000 nM in experiment [6].
Consider `NC(=O)c1cnc(Nc2ccc(C3CCN(C(=O)C4CCOCC4)CC3)cc2)cc1NCc1ccccc1F` [Example 119, 4-(2-fluorobenzylamino)-6-(4-(1-(tetrahydro-2H-pyran-4-carbonyl)piperidin-4-yl)phenylamino)nicotinamide], for which the inhibition at 0.2 µM in experiment [1] is 17%; in experiment [2], 54%. The figures for the inhibition at 1 µM in experiment [1] and in experiment [2] were 47% and 83%, respectively. Also, the IC50 in experiment [3] lay in the range of 100 to 1000 nM; in experiment [4] it was 10 to 100 nM; in experiment [5], 1 to 10 nM; in experiment [6] it was 100 to 1000 nM.
Turning to `NC(=O)c1cnc(Nc2cccc(C(=O)N3CCCCC3)c2)cc1NCc1ccccc1` [Example 249, 4-(benzylamino)-6-(3-(piperidine-1-carbonyl)phenylamino)nicotinamide], the inhibition at 0.2 µM in experiment [1] amounted to 23%; in experiment [2] it was 12%. Also, the values for the inhibition at 1 µM in experiment [1] and in experiment [2] were 32% and 29%, respectively. The IC50 in experiment [3] was 100 to 1000 nM; in experiment [4], 100 to 1000 nM; in experiment [5] it was 10 to 100 nM; in experiment [6], over 1000 nM.
As to `NC(=O)c1cnc(Nc2ccc(N3CCOCC3)cc2)cc1NCc1ccccc1` [Example 250, 4-(benzylamino)-6-(4-morpholinophenylamino)nicotinamide], the results for the inhibition at 0.2 µM in experiment [1] and in experiment [2] were 11% and 18%, respectively. For the same compound, the results for the inhibition at 1 µM in experiment [1] and in experiment [2] were 26% and 50%, respectively. In addition, the IC50 in experiment [3] is over 1000 nM; in experiment [4], 100 to 1000 nM; in experiment [5] it was 1 to 10 nM; in experiment [6], over 1000 nM.
On to `CC(=O)N1CCN(c2ccc(Nc3cc(NCc4cccc(F)c4F)c(C(N)=O)cn3)cc2)CC1` [Example 256, 6-(4-(4-acetylpiperazin-1-yl)phenylamino)-4-(2,3-difluorobenzylamino)nicotinamide], for which the inhibition at 0.2 µM in experiment [1] was found to be 37%; in experiment [2], 69%. In addition, the inhibition at 1 µM in experiment [1] was 64%; in experiment [2], 100%. For the same compound, the half-inhibitory concentration (IC50) in experiment [3] fell in the range of 100 to 1000 nM; in experiment [4], 10 to 100 nM; in experiment [5], 1 to 10 nM; in experiment [6], 100 to 1000 nM.
`NC(=O)c1cnc(Nc2ccc(OCCN3CCCC3)cc2)cc1NCc1ccccc1` [Example 428, 4-(benzylamino)-6-(4-(2-(pyrrolidin-1-yl)ethoxy)phenylamino)nicotinamide]: the inhibition at 0.2 µM came to 33% in experiment [1] and 56% in experiment [2]. Further, the inhibition at 1 µM in experiment [1] worked out at 46%; in experiment [2] it was 84%. In addition, the half-maximal inhibitory concentration (IC50) is over 1000 nM in experiment [3], 100 to 1000 nM in experiment [4], 1 to 10 nM in experiment [5] and over 1000 nM in experiment [6].
Turning to `NC(=O)c1cnc(Nc2ccc(OCCN3CCOCC3)cc2)cc1NCc1ccccc1` [Example 429, 4-(benzylamino)-6-(4-(2-morpholinoethoxyl)phenylamino)nicotinamide], the figures for the inhibition at 0.2 µM in experiment [1] and in experiment [2] were 19% and 60%, respectively. For the same compound, the inhibition at 1 µM was determined as 33% in experiment [1] and 77% in experiment [2]. Moreover, the 50% inhibitory concentration (IC50) is 100 to 1000 nM in experiment [3], 100 to 1000 nM in experiment [4], 1 to 10 nM in experiment [5] and over 1000 nM in experiment [6].
